Assay results reported in patent US20190322676A1, “CERAMIDE GALACTOSYLTRANSFERASE INHIBITORS FOR THE TREATMENT OF DISEASE” (BioMarin Pharmaceutical Inc., priority 2016, published 2019).
Where a name gives a salt, the structure may show the parent alone.

Target: T1, human CGT (ceramide galactosyltransferase), CHO/CGT lysate (Homo sapiens, UniProt Q16880)
T1 construct: Full-length human CGT cDNA was cloned into the BamH1/Xho1 site of pcDNA3.1 (+); expressed in transfected cells; host or cells: Chinese hamster ovary (CHO) cells; lysate prepared with M-PER
T1 sequence (Q16880 21-541): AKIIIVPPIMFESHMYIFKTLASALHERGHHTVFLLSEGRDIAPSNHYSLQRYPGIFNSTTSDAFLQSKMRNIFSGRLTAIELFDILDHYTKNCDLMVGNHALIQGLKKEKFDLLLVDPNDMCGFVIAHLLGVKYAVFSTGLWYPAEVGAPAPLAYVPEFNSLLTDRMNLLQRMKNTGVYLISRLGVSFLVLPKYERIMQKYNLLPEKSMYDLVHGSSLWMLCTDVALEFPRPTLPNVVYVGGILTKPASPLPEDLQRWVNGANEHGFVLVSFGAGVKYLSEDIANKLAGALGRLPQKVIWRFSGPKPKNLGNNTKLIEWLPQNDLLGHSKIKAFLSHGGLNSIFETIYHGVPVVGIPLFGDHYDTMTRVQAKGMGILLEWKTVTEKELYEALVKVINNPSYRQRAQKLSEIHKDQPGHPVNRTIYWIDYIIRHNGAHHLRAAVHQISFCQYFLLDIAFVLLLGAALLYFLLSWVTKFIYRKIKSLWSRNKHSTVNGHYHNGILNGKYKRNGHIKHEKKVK
Test: CGT enzyme assay, RapidFire/MS/MS readout (Table 1 ranges with one asterisk *)
Assay type: biochemical
Conditions: RapidFire method (range with one asterisk *)
Procedure, shortened: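 IC50s come from variable-slope dose-response fits of internal-standard-normalized C6-NBD-dihydro-galactosylceramide, measured by RapidFire/MS/MS (ESI negative). Reactions: 1 h, 37 °C, human CGT-expressing CHO lysate (4 μg), 0.001–50 μM compound, 10 μM NBD-dihydro-ceramide, 17.5 μM UDP-galactose, 0.5% DMSO, pH 7.2; 0.01% Tween 80 added for ** values.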

SMILES	IC50 [µM]
CN([C@H](C(=O)N1C2CCC1CC(N)C2)C(F)(F)c1ccc(OCc2ccccc2)cc1)S(=O)(=O)c1ccc2cc(OC3CCCC3)ccc2c1 (stereo partly drawn) [Compound 106-1, N-((2R)-3-(3-amino-8-azabicyclo[3.2.1]octan-8-yl)-1-(4-(benzyloxy)phenyl)-1,1-difluoro-3-oxopropan-2-yl)-6-(cyclopentyloxy)-N-methylnaphthalene-2-sulfonamide]	1 to 10
CN([C@@H](C(=O)N1C2CCC1CC(N)C2)C(F)(F)c1ccc(OCc2ccccc2)cc1)S(=O)(=O)c1ccc2cc(OC3CCCC3)ccc2c1 (stereo partly drawn) [Compound 106-2, N-((2S)-3-(3-amino-8-azabicyclo[3.2.1]octan-8-yl)-1-(4-(benzyloxy)phenyl)-1,1-difluoro-3-oxopropan-2-yl)-6-(cyclopentyloxy)-N-methylnaphthalene-2-sulfonamide]	1 to 10
NC1CC2CCC(C1)N2C(=O)[C@@H](NS(=O)(=O)c1ccc2cc(OC3CCCC3)ccc2c1)C(F)(F)c1cccc(Oc2ccccc2)c1 (stereo partly drawn) [Compound 107-1, N-((2R)-3-(3-amino-8-azabicyclo[3.2.1]octan-8-yl)-1,1-difluoro-3-oxo-1-(3-phenoxyphenyl)propan-2-yl)-6-(cyclopentyloxy)naphthalene-2-sulfonamide]	< 1
NC1CC2CCC(C1)N2C(=O)[C@H](NS(=O)(=O)c1ccc2cc(OC3CCCC3)ccc2c1)C(F)(F)c1cccc(Oc2ccccc2)c1 (stereo partly drawn) [Compound 107-2, N-((2S)-3-(3-amino-8-azabicyclo[3.2.1]octan-8-yl)-1,1-difluoro-3-oxo-1-(3-phenoxyphenyl)propan-2-yl)-6-(cyclopentyloxy)naphthalene-2-sulfonamide]	1 to 10
NC1CCN(C(=O)[C@@H](NS(=O)(=O)c2ccc3cc(OC4CCCC4)ccc3c2)C(F)(F)c2cccc(Oc3ccccc3)c2)CC1 [Compound 108-1, (R)—N-(3-(4-aminopiperidin-1-yl)-1,1-difluoro-3-oxo-1-(3-phenoxyphenyl)propan-2-yl)-6-(cyclopentyloxy)naphthalene-2-sulfonamide]	< 1
NC1CCN(C(=O)[C@H](NS(=O)(=O)c2ccc3cc(OC4CCCC4)ccc3c2)C(F)(F)c2cccc(Oc3ccccc3)c2)CC1 [Compound 108-2, (S)—N-(3-(4-aminopiperidin-1-yl)-1,1-difluoro-3-oxo-1-(3-phenoxyphenyl)propan-2-yl)-6-(cyclopentyloxy)naphthalene-2-sulfonamide]	1 to 10
NC1CCN(C(=O)[C@@H](NS(=O)(=O)c2ccc(OCC3CCCCC3)cc2)C(F)(F)c2cccc(Oc3ccccc3)c2)CC1 [Compound 109-1, (R)—N-(3-(4-aminopiperidin-1-yl)-1,1-difluoro-3-oxo-1-(3-phenoxyphenyl)propan-2-yl)-4-(cyclohexylmethoxy)benzenesulfonamide trifluoroacetate]	1 to 10
NC1CCN(C(=O)[C@H](NS(=O)(=O)c2ccc(OCC3CCCCC3)cc2)C(F)(F)c2cccc(Oc3ccccc3)c2)CC1 [Compound 109-2, (S)—N-(3-(4-aminopiperidin-1-yl)-1,1-difluoro-3-oxo-1-(3-phenoxyphenyl)propan-2-yl)-4-(cyclohexylmethoxy) benzenesulfonamide trifluoroacetate]	1 to 10
CN([C@H](C(=O)N1C2CCC1CC(N)C2)C(F)(F)c1ccc(O)cc1)S(=O)(=O)c1ccc2cc(OC3CCCC3)ccc2c1 (stereo partly drawn) [Compound 110-1, N-((2R)-3-(3-amino-8-azabicyclo[3.2.1]octan-8-yl)-1,1-difluoro-1-(4-hydroxyphenyl)-3-oxopropan-2-yl)-6-(cyclopentyloxy)-N-methylnaphthalene-2-sulfonamide trifluoroacetate]	1 to 10
CN([C@@H](C(=O)N1C2CCC1CC(N)C2)C(F)(F)c1ccc(O)cc1)S(=O)(=O)c1ccc2cc(OC3CCCC3)ccc2c1 (stereo partly drawn) [Compound 110-2, N-((2S)-3-(3-amino-8-azabicyclo[3.2.1]octan-8-yl)-1,1-difluoro-1-(4-hydroxyphenyl)-3-oxopropan-2-yl)-6-(cyclopentyloxy)-N-methylnaphthalene-2-sulfonamide trifluoroacetate]	30 to 100
CN([C@H](C(=O)N1C2CCC1CC(N)C2)C(F)(F)c1cccc(Oc2ccccc2)c1)S(=O)(=O)c1ccc2cc(OC3CCCC3)ccc2c1 (stereo partly drawn) [Compound 111-1, N-((2R)-3-(3-amino-8-azabicyclo[3.2.1]octan-8-yl)-1,1-difluoro-3-oxo-1-(3-phenoxyphenyl)propan-2-yl)-6-(cyclopentyloxy)-N-methylnaphthalene-2-sulfonamide trifluoroacetate]	< 1
CN([C@@H](C(=O)N1C2CCC1CC(N)C2)C(F)(F)c1cccc(Oc2ccccc2)c1)S(=O)(=O)c1ccc2cc(OC3CCCC3)ccc2c1 (stereo partly drawn) [Compound 111-2, N-((2S)-3-(3-amino-8-azabicyclo[3.2.1]octan-8-yl)-1,1-difluoro-3-oxo-1-(3-phenoxyphenyl)propan-2-yl)-6-(cyclopentyloxy)-N-methylnaphthalene-2-sulfonamide trifluoroacetate]	10 to 30
NC1CCN(C(=O)[C@@H](NS(=O)(=O)c2ccc3cc(OC4CCCC4)ccc3c2)C(F)(F)c2ccc(-c3ccc(Cl)s3)cc2)CC1 [Compound 112-1, (R)—N-(3-(4-aminopiperidin-1-yl)-1-(4-(5-chlorothiophen-2-yl)phenyl)-1,1-difluoro-3-oxopropan-2-yl)-6-(cyclopentyloxy)naphthalene-2-sulfonamide trifluoroacetate]	< 1
NC1CCN(C(=O)[C@H](NS(=O)(=O)c2ccc3cc(OC4CCCC4)ccc3c2)C(F)(F)c2ccc(-c3ccc(Cl)s3)cc2)CC1 [Compound 112-2, (S)—N-(3-(4-aminopiperidin-1-yl)-1-(4-(5-chlorothiophen-2-yl)phenyl)-1,1-difluoro-3-oxopropan-2-yl)-6-(cyclopentyloxy)naphthalene-2-sulfonamide trifluoroacetate]	1 to 10
NC1CC2CCC(C1)N2C(=O)[C@@H](NS(=O)(=O)c1ccc(OCC2CCCCC2)cc1)C(F)(F)c1cccc(Oc2ccccc2)c1 (stereo partly drawn) [Compound 113-1, N-((2R)-3-(3-amino-8-azabicyclo[3.2.1]octan-8-yl)-1,1-difluoro-3-oxo-1-(3-phenoxyphenyl)propan-2-yl)-4-(cyclohexylmethoxy)benzenesulfonamide trifluoroacetate]	< 1
NC1CC2CCC(C1)N2C(=O)[C@H](NS(=O)(=O)c1ccc(OCC2CCCCC2)cc1)C(F)(F)c1cccc(Oc2ccccc2)c1 (stereo partly drawn) [Compound 113-2, N-((2S)-3-(3-amino-8-azabicyclo[3.2.1]octan-8-yl)-1,1-difluoro-3-oxo-1-(3-phenoxyphenyl)propan-2-yl)-4-(cyclohexylmethoxy) benzenesulfonamide trifluoroacetate]	1 to 10
CCOc1ccc(C(F)(F)[C@@H](C(=O)N2C3CCC2CC(N)C3)N(C)S(=O)(=O)c2ccc3cc(OC4CCCC4)ccc3c2)cc1 (stereo partly drawn) [Compound 114-1, N-((2R)-3-(3-amino-8-azabicyclo[3.2.1]octan-8-yl)-1-(4-ethoxyphenyl)-1,1-difluoro-3-oxopropan-2-yl)-6-(cyclopentyloxy)-N-methylnaphthalene-2-sulfonamide]	1 to 10
CCOc1ccc(C(F)(F)[C@H](C(=O)N2C3CCC2CC(N)C3)N(C)S(=O)(=O)c2ccc3cc(OC4CCCC4)ccc3c2)cc1 (stereo partly drawn) [Compound 114-2, N-((2S)-3-(3-amino-8-azabicyclo[3.2.1]octan-8-yl)-1-(4-ethoxyphenyl)-1,1-difluoro-3-oxopropan-2-yl)-6-(cyclopentyloxy)-N-methylnaphthalene-2-sulfonamide]	10 to 30
